Laboratory results as given in patent US20050255491A1, “Small molecule and peptide arrays and uses thereof” (priority 2003, published 2005).

Experiments:
[1] = target: antibodies specific for the respective peptide antigens; conditions: antibody against the listed peptide; value taken from the reference; read-out: Affinity KD; cited from earlier work
[2] = test system: antibody C1 (specific for CRP-derived PET YEVQGEVF); test: Peptide competition assay, antibody C1; type: binding; conditions: competitor peptide against immobilized PET, neighbors completely ineffective even at the stated concentration, read-out: half-maximum effective peptide concentration
Protocol: (§1) In certain embodiments of the invention, a peptide competition assay may be used to determine the binding specificity of a capture agent towards its target PET, as compared to several nearest neighbor sequences of the PET. The same protocol can be adapted for small molecule-based competition assay
(§2) For a typical peptide competition assay, the following illustrative protocol may be used: 1 μg/100 μl/well of each target peptide is coated in Maxisorb Plates with coating buffer (carbonate buffer, pH 9.6) overnight at 4° C., or 1 hour at room temperature. The plates are washed with 300 μl of PBST (1×PBS/0.05% Tween 20) for 4 times. Then 300 μl of blocking buffer (2% BSA/PBST) is added and the plates are incubated for 1 hour at room temperature. Following blocking, the plates are washed with 300 μl of PBST for 4 times.
Synthesized competition peptides are dissolved in water to a final concentration of 2 mM solution. Serial dilution of competition peptides (for example, from 100 pM to 100 μM) in digested human serum are prepared. These competition peptides at particular concentrations are then mixed with equal amounts of primary antibodies against the target peptide. These mixtures are then added to plate wells with immobilized target peptides respectively. Binding is allowed to proceed for 2 hours at room temperature. […] Add 100 μl of stop buffer (2N HCL) and read the plates at OD450. […]

[3] = test system: antibody P1 (specific for PSA-derived PET EPAELTDA); test: Peptide competition assay, antibody P1; type: binding; conditions: for fold higher concentration at which nearest neighbor is still ineffective: relative to antigen PET EPAELTDA
Protocol: as §1, §2
Synthesized competition peptides are dissolved in water to a final concentration of 2 mM solution. Serial dilution of competition peptides (for example, from 100 pM to 100 μM) in digested human serum are prepared. These competition peptides at particular concentrations are then mixed with equal amounts of primary antibodies against the target peptide. These mixtures are then added to plate wells with immobilized target peptides respectively. Binding is allowed to proceed for 2 hours at room temperature. The plates are washed with 300 μl of PBST for 4 times. Then labeled secondary antibody against the primary antibody, such as 100 μl of 5,000× diluted anti-rabbit-IgG-HRP, is added and incubated for 1 more hour at room temperature. The plates are washed with 300 μl of PBST for 6 times. For detection of the HRP label activity, add 100 μl of TMB substrate (for HRP) and incubate for 15 minutes at room temperature. Add 100 μl of stop buffer (2N HCL) and read the plates at OD450. A peptide competition curve is plotted using the ABS at OD450 versus the competitor peptide concentrations. […]

[4] = test system: obese (NZO×NON)F1 male mice; conditions: chronic treatment; cited from earlier work
[5] = test system: alkaline protease from Bacillus sp. PS719; conditions: cited from earlier work
[6] = target: antibody C2, specific for the CRP PET sequence GYSIFSYA; test: peptide competition ELISA: soluble peptide series against the same immobilized peptide for a fixed concentration of antibody, in 10 mM digested serum proteins, HRP secondary antibody, ABS 450
[7] = target: antibody C1, specific for the CRP-derived 8-mer PET sequence YEVQGEVF; test: peptide competition assay, soluble PET against immobilized PET for antibody C1
[8] = target: antibody C1, specific for the CRP-derived 8-mer PET sequence YEVQGEVF; test: peptide competition ELISA: soluble peptide series against the same immobilized peptide for a fixed concentration of antibody, in 10 mM digested serum proteins, HRP secondary antibody, ABS 450
[9] = target: antibody used in the PET-based peptide competition assay for the Survivin peptide …; test: Survivin Peptide Competitive Assay, ABS 450
[10] = target: PET-specific antibody used in the peptide competition assay for the Troponin T peptide …; test: peptide competition ELISA with immobilized peptide, in 10mM digested serum proteins, ABS 450
[11] = liberation of p-nitroaniline from the substrate

GATPEDLNQKLAGN
Kd [1]: 1.4 nM

HHHHH [HHHHH (HIS tag), 5-aa HIS tag peptide]
Kd [1]: 25 nM

YEVQGEVF
IC50 [2]: ~1000 nM

RYDIEAKVTK [10-aa peptide antigen of a literature antibody (JI 169:6992, 2002)]
Kd [1]: 3.5 nM

DPTQLTDA [nearest-neighbor 8-mer of EPAELTDA found in the human proteome]
fold higher concentration at which nearest neighbor is still ineffective [3]: 25,000 fold

CN(CCOc1ccc(CC2SC(=O)NC2=O)cc1)c1ccccn1 (stereo not drawn) [rosiglitazone]
effect on hepatic steatosis [4]: markedly exacerbated

EPAELTDA
IC50 ([3]; competitor peptide against immobilized PET, read-out: half-maximum effective peptide concentration): ~40 nM

NYRAYATEPHAKKKS [15-aa peptide antigen of a literature antibody (EJB 267:1819, 2000)]
Kd [1]: 0.5 nM

O=c1oc(Cl)c(Cl)c2ccccc12 [DCI, 3,4-dichloroisocoumarin]
inhibition of protease activity [5]: completely inhibited

N-carbobenzoxy (CBZ)-L-arginine-p-nitroanilide
Km [5, 11]: 600 µM
Vmax [5, 11]: 1.0 μmol min^−1 mg protein^−1

YDVPDYAS (HA tag)
Kd [1]: 2 nM

CRGTGSYNRSSFESSSG
Kd [1]: 2.8 nM

MDYKAFDN (FLAG tag) [8-aa FLAG tag peptide]
Kd [1]: 2.3 nM

O=S(=O)(F)Cc1ccccc1 [PMSF, phenylmethylsulfonyl fluoride]
inhibition of protease activity [5]: completely inhibited

PQSDPSVEPPLS
Kd [1]: 16 nM

EPVELTSA [nearest-neighbor 8-mer of EPAELTDA found in the human proteome]
fold higher concentration at which nearest neighbor is still ineffective [3]: 25,000 fold

Cc1ccc(S(=O)(=O)N[C@@H](CCCCN)C(=O)CCl)cc1 [TLCK, N-α-p-tosyl-L-lysine chloromethyl ketone]
inhibition of protease activity [5]: completely inhibited

B1: CRP PET peptide GYSIFSYA (peptide)
peptide: GYSIFSYA
Detection Limit [6]: 1 nM
IC50 (read off the curve) [6]: 1000 nM

B2: CRP-derived 8-mer PET peptide YEVQGEVF (peptide)
peptide: YEVQGEVF
IC50 [7]: 1000 nM
Detection Limit [8]: 100 pM

B3: Survivin peptide … (peptide)
peptide: MGAPTLPPAWQPF
IC50 (read off the curve) [9]: 20 nM

B4: Troponin T tryptic PET-peptide … (peptide)
peptide: SFMPNLVPPK
IC50 (read off the curve) [10]: 20 nM
